From patent EP1191024A1, “Thiadiazines and their use as inhibitors of metalloproteinases” (Tschesche, Harald, priority 2000, dated 2002)

Each molecule was assayed against T1, ΔTM-MMP-14 (Homo sapiens, UniProt P50281) (assay: MMP microfluorometric profiling assay (fluorogenic Mca-peptide substrate)). Conditions: not given.
T1 construct: The ectodomain of MMP-14 was expressed in Pichia Pastoris; made in house; host or cells: Pichia pastoris
Assay type: biochemical
Molecule C[C@@H](NS(=O)(=O)c1ccccc1)C(=O)NC1=NN=C(c2ccc(C#N)cc2)CS1 [Example 1, (2R)-N-[5-(4-Cyanophenyl)-6H-1,3,4-thiadiazine-2-yl]-2-[(phenylsulfonyl)amino]-propanamide] has an IC50 of 610 nM.
For CC(C)[C@@H](NS(=O)(=O)c1ccccc1)C(=O)NC1=NN=C(c2ccc(Cl)cc2)CS1 [Example 2, (2R)-N-[5-(4-Chlorophenyl)-6H-1,3,4-thiadiazin-2-yl]-3-methyl-2-[(phenylsulfonyl)amino]butanamide], the IC50 was 593 nM.
With C[C@H](NS(=O)(=O)c1ccccc1)C(=O)NC1=NN=C(c2ccc(C#N)cc2)CS1 [Example 3, (2S)-N-[5-(4-Cyanophenyl)-6H-1,3,4-thiadiazin-2-yl]-2-[(phenylsulfonyl)amino]-propanamide] the IC50 was 709 nM.
With C[C@H](NS(=O)(=O)c1ccccc1)C(=O)NC1=NN=C(c2ccc(C(F)(F)F)cc2)CS1 [Example 4, (2S)-2-[(Phenylsulfonyl)amino]-N-{5-[4-(trifluormethyl)phenyl]-6H-1,3,4-thiadiazin-2-yl}propanamide] the IC50 was 708 nM.
Work on C[C@H](NS(=O)(=O)c1ccccc1)C(=O)NC1=NN=C(c2ccc(Cl)s2)CS1 [Example 10, (2S)-N-[5-(5-Chloro-2-thienyl)-6H-1,3,4-thiadiazin-2-yl]-2-[(phenylsulfonyl)-amino]propanamide] yielded an IC50 of 357 nM.
C[C@@H](NS(=O)(=O)c1ccccc1)C(=O)NC1=NN=C(c2ccc(F)cc2)CS1 [Example 14, (2R)-N-[5-(4-Fluorophenyl)-6H-1,3,4-thiadiazin-2-yl]-2-[(phenylsulfonyl)amino]-propanamide] was tested, and the IC50 was 596 nM.
Molecule CC(C)(C)c1ccc(S(=O)(=O)NCC(=O)NC2=NN=C(c3ccc(Cl)cc3Cl)CS2)cc1 [Example 18, 2-{[(4-tert-Butylphenyl)sulfonyl]amino}-N-[5-(2,4-dichlorophenyl)-6H-1,3,4-thiadiazin-2-yl]acetamide] has an IC50 of 887 nM.
For C[C@H](NS(=O)(=O)c1cccnc1)C(=O)NC1=NN=C(c2ccc(Cl)cc2)CS1 [Example 29, (2S)-N-[5-(4-Chlorophenyl)-6H-1,3,4-thiadiazin-2-yl]-2-[(3-pyridylsulfonyl)-amino]propanamide], the IC50 was 430 nM.
O=C1C[C@@H](C(=O)NC2=NN=C(c3ccc(Cl)cc3)CS2)NC(=O)N1 [Example 30, (4S)-N-[5-(4-Chlorophenyl)-6H-1,3,4-thiadiazin-2-yl]-2,6-dioxohexahydro-4-pyrimidinecarboxamide] gave an IC50 of 692 nM.

Same assay, conditions: ΔTM-MMP-14, @ 15 (µM)
With O=C(CC1NC(=O)NC1=O)NC1=NN=C(c2ccc(N3CCCC3)cc2)CS1 (stereo not shown) [Example 26, 2-(2,5-Dioxo-4-imidazolidinyl)-N-{5-[4-(1-pyrrolidinyl)phenyl]-6H-1,3,4-thiadiazin-2-yl}acetamide] the percent inhibition was 63%^a)@ 15.
